# Measured values reported in patent US10004701B2, “Methods and compositions for treating infection” (UNIVERSITY OF ROCHESTER, priority 2012, dated 2018).
# Where a name gives a salt, the structure may show the parent alone. Read-outs that look alike come from different tables or passages of the source.
# Columns and labels:
# Assay in all cases: AK assay 384-well format, Prestwick library screening
# E. faecium = format: cell-based, Enterococcus faecium; details: Enterococcus faecium, 3 h, 50 μM final drug concentration
# [1] = system: S. aureus strain USA300-0114; format: cell-based, Staphylococcus aureus; details: Staphylococcus aureus, USA300, 3 h, 50 μM final drug concentration
# K. pneumoniae = format: cell-based, Klebsiella pneumoniae; details: Klebsiella pneumoniae, 3 h, 50 μM final drug concentration
# [2] = system: A. baumannii strain 98-37-09; format: cell-based, Acinetobacter baumannii; details: Acinetobacter baumannii, 983709, 3 h, 50 μM final drug concentration
# P. aeruginosa = format: cell-based, Pseudomonas aeruginosa; details: Pseudomonas aeruginosa, 3 h, 50 μM final drug concentration
# E. cloacae = format: cell-based, Enterobacter cloacae; details: Enterobacter cloacae, 3 h, 50 μM final drug concentration
# E. coli = format: cell-based, Escherichia coli; details: Escherichia coli, 3 h, 50 μM final drug concentration
# [3] = planktonic, cutoff for positive 3-fold increase, read-out: AK-based Prestwick Library Screening Results, E. faecium (fold increase in extracellular AK activity)
# [4] = planktonic, cutoff for positive 3-fold increase, read-out: AK-based Prestwick Library Screening Results, S. aureus (fold increase in extracellular AK activity)
# [5] = planktonic, cutoff for positive 3-fold increase, read-out: AK-based Prestwick Library Screening Results, K. pneumoniae (fold increase in extracellular AK activity)
# [6] = planktonic, cutoff for positive 3-fold increase, read-out: AK-based Prestwick Library Screening Results, A. baumannii (fold increase in extracellular AK activity)
# [7] = planktonic, cutoff for positive 3-fold increase, read-out: AK-based Prestwick Library Screening Results, P. aeruginosa (fold increase in extracellular AK activity)
# [8] = planktonic, cutoff for positive 3-fold increase, read-out: AK-based Prestwick Library Screening Results, E. cloacae (fold increase in extracellular AK activity)
# [9] = planktonic, cutoff for positive 3-fold increase, read-out: AK-based Prestwick Library Screening Results, E. coli (fold increase in extracellular AK activity)
# [10] = planktonic E. faecium, 384-well, cutoff for positive-scoring molecules 3-fold increase, read-out: AK-based Prestwick Library Screening Results: E. faecium (increase in extracellular AK activity)
# [11] = planktonic S. aureus, 384-well, cutoff for positive-scoring molecules 3-fold increase, read-out: AK-based Prestwick Library Screening Results: S. aureus (increase in extracellular AK activity)
# [12] = planktonic K. pneumoniae, 384-well, cutoff for positive-scoring molecules 3-fold increase, read-out: AK-based Prestwick Library Screening Results: K. pneumoniae (increase in extracellular AK activity)
# [13] = planktonic A. baumannii, 384-well, cutoff for positive-scoring molecules 3-fold increase, read-out: AK-based Prestwick Library Screening Results: A. baumannii (increase in extracellular AK activity)
# [14] = planktonic P. aeruginosa, 384-well, cutoff for positive-scoring molecules 3-fold increase, read-out: AK-based Prestwick Library Screening Results: P. aeruginosa (increase in extracellular AK activity)
# [15] = planktonic E. cloacae, 384-well, cutoff for positive-scoring molecules 3-fold increase, read-out: AK-based Prestwick Library Screening Results: E. cloacae (increase in extracellular AK activity)
# [16] = planktonic E. coli, 384-well, cutoff for positive-scoring molecules 3-fold increase, read-out: AK-based Prestwick Library Screening Results: E. coli (increase in extracellular AK activity)
# [17] = 384-well format, cutoff for positive-scoring molecules 3-fold increase, read-out: AK-based Prestwick Library Screening Results, E. faecium (increase in extracellular AK activity)
# [18] = 384-well format, cutoff for positive-scoring molecules 3-fold increase, read-out: AK-based Prestwick Library Screening Results, S. aureus (increase in extracellular AK activity)
# [19] = 384-well format, cutoff for positive-scoring molecules 3-fold increase, read-out: AK-based Prestwick Library Screening Results, K. pneumoniae (increase in extracellular AK activity)
# [20] = 384-well format, cutoff for positive-scoring molecules 3-fold increase, read-out: AK-based Prestwick Library Screening Results, A. baumannii (increase in extracellular AK activity)
# [21] = 384-well format, cutoff for positive-scoring molecules 3-fold increase, read-out: AK-based Prestwick Library Screening Results, P. aeruginosa (increase in extracellular AK activity)
# [22] = 384-well format, cutoff for positive-scoring molecules 3-fold increase, read-out: AK-based Prestwick Library Screening Results, E. cloacae (increase in extracellular AK activity)
# [23] = 384-well format, cutoff for positive-scoring molecules 3-fold increase, read-out: AK-based Prestwick Library Screening Results, E. coli (increase in extracellular AK activity)
smiles,measurement,setting,value
COc1ccc(CN2CCNCC2)c(OC)c1OC [Trimetazidine dihydrochloride],fold induction at 50 µM,E. faecium; [3],1
same,fold induction at 50 µM,[1]; [4],1.2
same,fold induction at 50 µM,K. pneumoniae; [5],1.1
same,fold induction at 50 µM,[2]; [6],1.2
same,fold induction at 50 µM,P. aeruginosa; [7],1.1
same,fold induction at 50 µM,E. cloacae; [8],1.7
same,fold induction at 50 µM,E. coli; [9],1.4
CN1C(=O)OC(C)(C)C1=O [Trimethadione],fold induction at 50 µM,"E. faecium; planktonic E. faecium, cutoff for positive-scoring molecules 3-fold increase, read-out: AK-based Prestwick Library Screening Results, E. faecium (increase in extracellular AK activity)",0.9
same,fold induction at 50 µM,"[1]; planktonic S. aureus, cutoff for positive-scoring molecules 3-fold increase, read-out: AK-based Prestwick Library Screening Results, S. aureus (increase in extracellular AK activity)",0.7
same,fold induction at 50 µM,"K. pneumoniae; planktonic K. pneumoniae, cutoff for positive-scoring molecules 3-fold increase, read-out: AK-based Prestwick Library Screening Results, K. pneumoniae (increase in extracellular AK activity)",0.7
same,fold induction at 50 µM,"[2]; planktonic A. baumannii, cutoff for positive-scoring molecules 3-fold increase, read-out: AK-based Prestwick Library Screening Results, A. baumannii (increase in extracellular AK activity)",0.9
same,fold induction at 50 µM,"P. aeruginosa; planktonic P. aeruginosa, cutoff for positive-scoring molecules 3-fold increase, read-out: AK-based Prestwick Library Screening Results, P. aeruginosa (increase in extracellular AK activity)",0.8
same,fold induction at 50 µM,"E. cloacae; planktonic E. cloacae, cutoff for positive-scoring molecules 3-fold increase, read-out: AK-based Prestwick Library Screening Results, E. cloacae (increase in extracellular AK activity)",1.4
same,fold induction at 50 µM,"E. coli; planktonic E. coli, cutoff for positive-scoring molecules 3-fold increase, read-out: AK-based Prestwick Library Screening Results, E. coli (increase in extracellular AK activity)",1
COc1cc(C(=O)NCc2ccc(OCCN(C)C)cc2)cc(OC)c1OC [Trimethobenzamide hydrochloride],fold induction at 50 µM,E. faecium; [10],1.1
same,fold induction at 50 µM,[1]; [11],1.2
same,fold induction at 50 µM,K. pneumoniae; [12],1.1
same,fold induction at 50 µM,[2]; [13],1.2
same,fold induction at 50 µM,P. aeruginosa; [14],1
same,fold induction at 50 µM,E. cloacae; [15],1.3
same,fold induction at 50 µM,E. coli; [16],1.2
COc1cc(Cc2cnc(N)nc2N)cc(OC)c1OC [Trimethoprim],fold induction at 50 µM,E. faecium; [10],1.1
same,fold induction at 50 µM,[1]; [11],1
same,fold induction at 50 µM,K. pneumoniae; [12],0.8
same,fold induction at 50 µM,[2]; [13],3.1
same,fold induction at 50 µM,P. aeruginosa; [14],1.1
same,fold induction at 50 µM,E. cloacae; [15],7.2
same,fold induction at 50 µM,E. coli; [16],1.2
COc1cc2c(c(OC)c1OC)-c1ccc(O)c(=O)cc1C(N)CC2 (stereo not drawn) [Trimethylcolchicinic acid],fold induction at 50 µM,"E. faecium; planktonic E. faecium, […], read-out: AK-based Prestwick Library Screening Results, E. faecium (increase in extracellular AK activity)",1.2
same,fold induction at 50 µM,"[1]; planktonic S. aureus, […], read-out: AK-based Prestwick Library Screening Results, S. aureus (increase in extracellular AK activity)",0.6
same,fold induction at 50 µM,"K. pneumoniae; planktonic K. pneumoniae, […], read-out: AK-based Prestwick Library Screening Results, K. pneumoniae (increase in extracellular AK activity)",0.7
same,fold induction at 50 µM,"[2]; planktonic A. baumannii, […], read-out: AK-based Prestwick Library Screening Results, A. baumannii (increase in extracellular AK activity)",1
same,fold induction at 50 µM,"P. aeruginosa; planktonic P. aeruginosa, […], read-out: AK-based Prestwick Library Screening Results, P. aeruginosa (increase in extracellular AK activity)",0.7
same,fold induction at 50 µM,"E. cloacae; planktonic E. cloacae, […], read-out: AK-based Prestwick Library Screening Results, E. cloacae (increase in extracellular AK activity)",0.8
same,fold induction at 50 µM,"E. coli; planktonic E. coli, […], read-out: AK-based Prestwick Library Screening Results, E. coli (increase in extracellular AK activity)",0.8
Cc1cc2cc3c(C)cc(=O)oc3c(C)c2o1 [Trioxsalen],fold induction at 50 µM,"E. faecium; cutoff for positive-scoring molecules 3-fold increase, read-out: AK-based Prestwick Library Screening Results, E. faecium (fold increase in extracellular AK activity)",0.9
same,fold induction at 50 µM,"[1]; cutoff for positive-scoring molecules 3-fold increase, read-out: AK-based Prestwick Library Screening Results, S. aureus (fold increase in extracellular AK activity)",0.9
same,fold induction at 50 µM,"K. pneumoniae; cutoff for positive-scoring molecules 3-fold increase, read-out: AK-based Prestwick Library Screening Results, K. pneumoniae (fold increase in extracellular AK activity)",1
same,fold induction at 50 µM,"[2]; cutoff for positive-scoring molecules 3-fold increase, read-out: AK-based Prestwick Library Screening Results, A. baumannii (fold increase in extracellular AK activity)",1.2
same,fold induction at 50 µM,"P. aeruginosa; cutoff for positive-scoring molecules 3-fold increase, read-out: AK-based Prestwick Library Screening Results, P. aeruginosa (fold increase in extracellular AK activity)",1
same,fold induction at 50 µM,"E. cloacae; cutoff for positive-scoring molecules 3-fold increase, read-out: AK-based Prestwick Library Screening Results, E. cloacae (fold increase in extracellular AK activity)",1.3
same,fold induction at 50 µM,"E. coli; cutoff for positive-scoring molecules 3-fold increase, read-out: AK-based Prestwick Library Screening Results, E. coli (fold increase in extracellular AK activity)",1.2
Cc1ccc(/C(=C\CN2CCCC2)c2ccccn2)cc1 [Triprolidine hydrochloride],fold induction at 50 µM,E. faecium; [17],1
same,fold induction at 50 µM,[1]; [18],0.6
same,fold induction at 50 µM,K. pneumoniae; [19],0.7
same,fold induction at 50 µM,[2]; [20],0.9
same,fold induction at 50 µM,P. aeruginosa; [21],1
same,fold induction at 50 µM,E. cloacae; [22],1
same,fold induction at 50 µM,E. coli; [23],1
CO[C@H]1C[C@H](O[C@H]2[C@H](C)[C@@H](O[C@@H]3O[C@H](C)C[C@H](N(C)C)[C@H]3OC(C)=O)[C@@H](C)C[C@@]3(CO3)C(=O)[C@H](C)[C@@H](OC(C)=O)[C@@H](C)[C@@H](C)OC(=O)[C@@H]2C)O[C@@H](C)[C@@H]1OC(C)=O [Troleandomycin],fold induction at 50 µM,E. faecium; [17],1
same,fold induction at 50 µM,[1]; [18],6.5
same,fold induction at 50 µM,K. pneumoniae; [19],0.6
same,fold induction at 50 µM,[2]; [20],0.8
same,fold induction at 50 µM,P. aeruginosa; [21],0.7
same,fold induction at 50 µM,E. cloacae; [22],1.1
same,fold induction at 50 µM,E. coli; [23],0.9
Cc1c(C)c2c(c(C)c1O)CCC(C)(C(=O)O)O2 (stereo not drawn) [Trolox],fold induction at 50 µM,E. faecium; [3],1.1
same,fold induction at 50 µM,[1]; [4],1.6
same,fold induction at 50 µM,K. pneumoniae; [5],1.1
same,fold induction at 50 µM,[2]; [6],1.1
same,fold induction at 50 µM,P. aeruginosa; [7],1.1
same,fold induction at 50 µM,E. cloacae; [8],1.6
same,fold induction at 50 µM,E. coli; [9],1.1
